According to patent publication US5840721A, “Imidazole derivatives as MDR modulators” (Ontogen Corporation, priority 1997, dated 1998):

Experiments:
CEM/VLB1000 cell line [1] = test: Cytotoxicity potentiation: enhancement of vinblastine cytotoxicity in MDR cell line (alamar blue); type: cell-based, human; details: Homo sapiens, midpoint of minimum and maximum cytotoxicity induced by 3-5 μg/mL vinblastine and compound, 48 hours incubation, alamar blue 24 hours, read-out: Cytotocicity Potentiation (EC50)
Experimental: Multidrug-resistant cell lines are easily obtainable for in vitro determination of drug sensitization by compounds of the present invention. In vitro potentiation of antineoplastic cytotoxicity by the imidazole derivatives of the present invention was measured in both CEM/VLB1000 and SK/VLB1000 cell lines. The multidrug resistant cell lines were obtained from Dr. Victor Ling, Ontario Cancer Institute, Toronto, Canada. The CEM/VLB 1000 cell line was maintained as a suspension in minimum essential medium supplemented with 10% fetal bovine serum in a humidied atmosphere of 95% air and 5% CO2 while the SK/VLB 1000 cell line was maintained as adherent cells using the identical medium conditions as the CEM cells. The CEM/VLB 1000 cells were seeded at a density of 5×10^4 cells/well in a 96 well microtiter plate while the SK/VLB 1000 cell line was seeded at a density of 2,500 cells/well after trypsinization.

CEM/VLB1000 cell line [2] = test: [3H]VLB accumulation in CEM/VLB1000 cells; type: cell-based; details: Homo sapiens, midpoint of minimum and maximum increase in accumulation of 3H-vinblastine (275 nM), 3 hours at 37° C
Experimental: ^3 H-vinblastine accumulation was also measured in the CEM/VLB1000 cell line. Corning Easy-Wash 96 well plates were pretreated with PBS and 1% BSA for 60 minutes and then removed. CEM/VLB1000 cells were seeded at 2×10^5, 40 μL volume. Plates were incubated at 37° C. for 30-60 minutes prior to use. The reference reversing agent, verapamil, or the compound of the present invention was added to the well followed by addition of media containing ^3 H-vinblastine (final concentration=275nM). Plates were allowed to incubate for 3 hours at 37° C. Cells were harvested onto pretreated Wallace filtermats A (pretreated with 0.1% polyethyleneimine) using a TomTek harvester-96. After filtering, the filtermats were allowed to dry completely. Meltix B scintillant was then added to the filtermats. The filters were then placed in a 90° C. oven for approximately 3-5 minutes and then removed. Scintillant was allowed to solidify on the filtermats. Filtermats were then placed in sample bags and read on a Wallace BetaPlate scintillation counter. The effects of compounds of the present invention in the cytotoxicity potentiation assays and vinblastine (VLB) accumulation assay are given in the Table below:
^2 Values presented are the midpoint (EC50 ) of the minimum and
maximum increase in accumulation of ^3 Hvinblastine caused by the
specfic compound of the present invention.

| EC50 (CEM/VLB1000 cell line [2]) [µM] | SMILES | EC50 (CEM/VLB1000 cell line [1]) [µM] |
| --- | --- | --- |
| 3.9 | CN(C)c1ccc(-c2nc(-c3ccc(/C=C/CO)cc3)[nH]c2-c2ccc(N(C)C)cc2)cc1 [Example 113, 2-[4-(3-hydroxy-trans-1-propen-1-yl)phenyl]-4,5-bis (4-N,N-dimethylaminophenyl) imidazole] | 0.41 |
| 1.2 | CCOC/C=C/c1ccc(-c2nc(-c3ccc(N(C)C)cc3)c(-c3ccc(N(C)C)cc3)[nH]2)cc1 [Example 75, 2-[4-(3-ethoxy-trans-1-propen-1-yl)phenyl]-4,5-bis (4-N,N-dimethylaminophenyl) imidazole] | 0.098 |
| 2 | COC/C=C/c1ccc(-c2nc(-c3ccc(N(C)C)cc3)c(-c3ccc(N(C)C)cc3)[nH]2)cc1 [Example 74, 2-[4-(3-methoxy-trans-1-propen-1-yl)phenyl]-4,5-bis (4-N,N-dimnethylaminophenyl) imidazole] | 0.13 |
